{"source": "ChEMBL document CHEMBL5120855", "about": "“Potent 2,3-dihydrophthalazine-1,4-dione derivatives as dual inhibitors for mono-ADP-ribosyltransferases PARP10 and PARP15” (Eur J Med Chem, 2022)", "key": {"[1]": {"target": "T1, Protein mono-ADP-ribosyltransferase PARP15 (Homo sapiens, UniProt Q460N3)", "T1 sequence (Q460N3 whole entry)": "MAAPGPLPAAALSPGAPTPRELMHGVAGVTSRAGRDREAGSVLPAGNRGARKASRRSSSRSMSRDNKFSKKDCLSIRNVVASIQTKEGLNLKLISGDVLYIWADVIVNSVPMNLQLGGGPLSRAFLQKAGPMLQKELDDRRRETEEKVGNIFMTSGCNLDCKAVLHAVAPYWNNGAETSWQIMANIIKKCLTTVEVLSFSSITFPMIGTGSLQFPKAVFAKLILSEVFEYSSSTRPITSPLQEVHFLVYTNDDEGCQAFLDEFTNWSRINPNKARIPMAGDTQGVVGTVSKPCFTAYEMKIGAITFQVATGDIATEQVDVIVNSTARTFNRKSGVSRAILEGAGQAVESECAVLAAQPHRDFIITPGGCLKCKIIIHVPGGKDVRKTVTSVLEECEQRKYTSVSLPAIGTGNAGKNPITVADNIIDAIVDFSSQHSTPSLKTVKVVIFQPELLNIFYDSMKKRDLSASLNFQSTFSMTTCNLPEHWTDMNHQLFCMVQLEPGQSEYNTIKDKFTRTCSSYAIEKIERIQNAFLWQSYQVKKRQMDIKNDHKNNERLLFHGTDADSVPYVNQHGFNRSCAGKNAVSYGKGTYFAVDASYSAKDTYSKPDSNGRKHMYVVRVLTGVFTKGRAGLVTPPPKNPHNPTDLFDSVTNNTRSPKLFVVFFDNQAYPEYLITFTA", "experiment": "Inhibition of human N-terminal 6His-tagged PARP15 (460 to 656 residues) expressed in Escherichia coli Rosetta2 (DE3) cells using NAD+ as substrate incubated for 10 mins by fluorescence based analysis"}, "[2]": {"target": "Poly [ADP-ribose] polymerase 2 (Homo sapiens, UniProt Q9UGN5)", "sequence (Q9UGN5 whole entry)": "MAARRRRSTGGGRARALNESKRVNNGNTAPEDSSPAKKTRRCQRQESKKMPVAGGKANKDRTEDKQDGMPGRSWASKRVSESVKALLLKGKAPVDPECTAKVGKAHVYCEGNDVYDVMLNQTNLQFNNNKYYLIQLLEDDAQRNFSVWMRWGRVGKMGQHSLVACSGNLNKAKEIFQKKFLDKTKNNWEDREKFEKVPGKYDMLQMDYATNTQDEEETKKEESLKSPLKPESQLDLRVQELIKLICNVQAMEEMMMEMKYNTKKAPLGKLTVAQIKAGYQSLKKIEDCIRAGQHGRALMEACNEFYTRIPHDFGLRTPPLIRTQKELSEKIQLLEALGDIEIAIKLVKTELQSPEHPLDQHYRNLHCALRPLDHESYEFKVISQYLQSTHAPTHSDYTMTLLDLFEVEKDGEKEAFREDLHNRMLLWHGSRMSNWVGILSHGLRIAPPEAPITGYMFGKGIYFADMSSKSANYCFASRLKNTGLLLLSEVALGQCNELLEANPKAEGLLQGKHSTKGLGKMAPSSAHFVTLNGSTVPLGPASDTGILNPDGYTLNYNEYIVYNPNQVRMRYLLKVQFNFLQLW", "experiment": "Inhibition of human PARP2 using NAD+ as substrate incubated for 10 mins by fluorescence based analysis"}, "HEK-293T": {"test_system": "HEK-293T", "experiment": "Cytotoxicity against HEK293T cells assessed as reduction in cell viability at 10 uM measured after 24 hrs by WST-1 assay", "format": "toxicity, cell-based", "conditions": "human"}}, "data": [{"smiles": "NC(=O)c1ccc(OCC2CCC2)cc1", "values": [{"measurement": "IC50", "setting": "[1]", "result": 2.4, "unit": "µM"}, {"measurement": "IC50", "setting": "[2]", "result": 38, "unit": "µM"}, {"measurement": "Activity", "setting": "HEK-293T", "result": "Non-Toxic"}]}]}
